Assay [1] has as its system PRI54M (PR with I54M mutation). Put plainly: Fluorescence assay of HIV-1 protease inhibition. The format is biochemical. The following applies: PRI54M vs PRWT.
The subject of assay [2] is PRV82A (PR with V82A mutation). Put plainly: Fluorescence assay of HIV-1 protease inhibition. The format is biochemical. To be noted: PRV82A vs PRWT.
The target of assay [3] is PRD30N. The following applies: mutant PRD30N; ref [22], [23]; cited from earlier work.
For assay [4], the target named is PRI50V. To be noted: mutant PRI50V; ref [22], [23]; cited from earlier work.

Results on 2 molecules are retold here after article PMC3574189 (Journal of medicinal chemistry, 2013).

With `COc1ccc(S(=O)(=O)N(CC(C)C)C[C@@H](O)[C@H](Cc2ccccc2)NC(=O)O[C@H]2CO[C@H]3O[C@@H]4OCC[C@@H]4[C@H]32)cc1` [Compound 1, GRL-0519], the “increased Ki relative to PRWT” value in assay [1] and in assay [2] was 6-7 fold each time.
Regarding `CC(C)CN(C[C@@H](O)[C@H](Cc1ccccc1)NC(=O)O[C@H]1CO[C@H]2OCC[C@H]21)S(=O)(=O)c1ccc(N)cc1` [DRV, darunavir], the values for the inhibition constant Ki in assay [3] and in assay [4] were 6.6 nM and no more than 18 nM, respectively.
